Test results published in patent publication US4282111A (Betz Laboratories, Inc., priority 1980, dated 1981).

What was measured:
[1] = for % O2 Removed, 1 Minute: hydroquinone: pH 8.6, 22.5 °C, 0.94 mol/mol O2, initial O2 7.7 ppm
Text: The test apparatus basically consisted of a 1 liter three-necked flask fitted with a dissolved oxygen probe and a pH electrode. The intent of this apparatus was to show reaction kinetics differences rather than precise measurements (within seconds) of reaction times.
The flask was filled with deionized water which had been stripped of some dissolved oxygen by bubbling nitrogen through a diffuser stone. The pH was adjusted to the desired level with sodium hydroxide. The flask was sealed with a rubber septum, the dissolved oxygen probe and an inlet stopper. A magnetic stirrer bar was left in the flask for mixing. The mixer was turned on, and dissolved oxygen and temperature readings were recorded until the dissolved oxygen reached a constant value. Next, the appropriate quantity of additive was injected through the septum using a hypodermic syringe. The initial mole ratio of treatment to dissolved oxygen was determined by weighing feed chemical and measuring the oxygen concentration. […] Dissolved oxygen and temperature readings were then taken at appropriate time intervals.

[2] = oxygen scavenging in feedwater of a working boiler (Example 2)
Method: In order to compare the performance of hydroquinone with that of hydrazine under field-type conditions, a series of experiments were conducted on the feedwater of a working boiler. The test materials were fed to the deaerator storage tank, and the resultant change, if any, in dissolved oxygen level was measured on a sample flowing from the feedwater line through a membrane-type dissolved oxygen probe.
During the tests, a relatively wide range of experimental conditions was encountered among the test parameters, reflecting the difficulty of attempting to obtain precise data during experiments performed on a working boiler.
In order to provide some point of reference for judging oxygen scavenging efficacies while taking into account the diverse conditions experienced on a daily basis, hydrazine control runs were performed, whenever possible, under feedwater and boiler conditions similar to those encountered during testing of other test materials. The hydrazine control runs are reported below in TABLE 3 also in terms of % oxygen removal.

[3] = oxygen scavenging in stainless steel hot water flow system at elevated temperature and pressure (Example 1); conditions: for % O2 Removed: 78±3°C, 4±1 psig, 4±0.2 min contact, feedwater: hydrazine 96 ppm pH 10.3 O2 1.8 ppm (average of 9 runs), hydroquinone 100 ppm pH 8.9 O2 2.3 ppm, p-phenylenediamine 69 ppm pH 10.9 O2 2.0 ppm, o-phenylenediamine 58 ppm pH 10.2 O2 2.0 ppm, resorcinol 90 ppm pH 9.8 O2 1.8 ppm, values below 20% may be artifacts; for oxygen scavenging in the test water (in words): conclusion from TABLE 1
Method: In a first series of tests, the oxygen scavenging efficacies of various materials were evaluated under conditions of elevated temperature and pressure. The test apparatus used was essentially a stainless steel hot water flow system equipped with appropriate monitoring instrumentation. Demineralized feedwater, adjusted to the appropriate pH and initial dissolved oxygen level (controlled by nitrogen sparging), was pumped from a reservoir at ambient temperature into a once-through heater. Temperature was monitored continuously by means of thermocouples at several locations along the length of the flow tubing. A solution containing the oxygen scavenger test material was loaded into a pump driven syringe and fed continuously to the heated flow stream through a port containing a stainless steel ribbon mixing baffle. The feedwater containing dissolved oxygen and the test material then traversed the flow tubing via a by-pass comprising an additional length of coiled tubing. Contact (or reaction) time of the test material and dissolved oxygen was governed by the choice of coil length. The tendency of the temperature to drop during residence in the coiled tubing was offset by the use of thermostatted heating tapes which maintained the temperature in this tubing at 78°±3°C. Upon exiting the coiled tubing, the stream flowed through a sample cooler to render the temperature of the liquid compatible with the operating range of a membrane-type dissolved oxygen probe. The cooled liquid was analyzed for dissolved oxygen via a D.O. flow cell, and pH was potentiometrically monitored in the flow tube immediately downstream of the D.O. probe. Outputs of the temperature, pH and dissolved oxygen probes during operation were monitored via strip chart recorders. The final destination of the reaction mixture was a reservoir which could be drained for analysis of reaction products, if desired.
Temperature in the system could be maintained at 78°±3° C. under 4±1 psig. Residence time of the feedwater in the flow tube from chemical feed point to D.O. flow cell outlet was 4±0.2 minutes. Approximately 3.5 minutes of this total was spent in a 40' length of 0.402 inch i.d. coiled tubing. Entry into and residence in the sample cooler accounted for 0.5 minute of the total contact time.
According to an article by J. W. Cohn and R. E. Powell, Jr., J. Amer.
The test solutions were prepared by initially mixing 10 grams of test material and 90 grams of demineralized water in glass bottles and allowing the mixture to remain in a shaker for several hours. If complete dissolution for a given material was observed after shaking, the pH of the solution was measured. When the pH of the solution was below 10.0, 7 N sodium hydroxide was added dropwise until this value was reached. The quantity of added sodium hydroxide was recorded and later used in corrections for the active concentration of the solution. When the pH value of a stock solution was above pH 10.0 without requiring the addition of caustic, the solution was not further modified.
Results of these tests are reported in TABLE 1 below in terms of percent oxygen removed from the test stream. The precision of the initial and final dissolved oxygen values reported is approximately ±10%. […] The experimental uncertainties decrease with increasing values of percent dissolved oxygen removal.

test rats = conditions: conclusion from TABLE 4; cited from earlier work
[4] = background; cited from earlier work
[5] = low temperatures such as room temperature; background; cited from earlier work
[6] = Cohn and Powell, J. Amer. Chem. Soc., 76, 2568 (1954); cited from earlier work
[7] = background, cited from earlier work
[8] = thermal decomposition of aqueous solutions in autoclaves (Example 5); conditions: hydrazine 60 ppm, 435 psig, 450 °F, 4 hours
Method: The aqueous solutions (approximately 50-60 ppm in demineralized water) were subjected to specified temperature and pressure conditions for 4 hours prior to chemical analysis.

[9] = hydrazine: pH 9.2, 26.5 °C, 10.5 mol/mol O2, initial O2 0.87 ppm

Oc1ccc(O)cc1 [hydroquinone]
% O2 Removed, 1 Minute [1, 9]: 29% | reactivity at low temperature with oxygen (in words) ([1]; conclusion from TABLE 5, compared to hydrazine): superiority of hydroquinone, as compared to hydrazine | % O2 Removed ([2]; 1.9 ppm actives, pH 8.4, steam load 15 (1000 lbs./hr.), initial O2 8.0 ppb): 88% | % O2 Removed ([2]; 1.9 ppm actives, pH 8.4, steam load 15 (1000 lbs./hr.), initial O2 10.0 ppb): 90% | efficacy in treating boiler feedwater (in words) ([2]; conclusion from TABLES 2 and 3): compared favorably with hydrazine | % O2 Removed [3]: 97% | oxygen scavenging in the test water (in words) [3]: at least equivalent to, if not better than, hydrazine | toxicity compared to hydrazine (in words) (test rats): significantly less toxic as compared to hydrazine

Oc1cccc(O)c1 [resorcinol]
% O2 Removed [3]: 0% | oxygen scavenging in the test water (in words) [3]: did not work as oxygen scavengers

Nc1ccc(N)cc1 [p-phenylenediamine]
% O2 Removed [3]: 35% | oxygen scavenging in the test water (in words) [3]: did not work as oxygen scavengers

NN [hydrazine]
toxicity (in words) [4]: extreme toxicity and carcinogenicity | % O2 Removed, 1 Minute [1, 9]: 1% | % O2 Removed, 5 Minutes ([1]; 5 minutes, hydrazine: pH 9.2, 26.5 °C, 10.5 mol/mol O2, initial O2 0.87 ppm): 2% | % O2 Removed ([2]; hydrazine control run 1: 1.6 ppm actives, pH 8.8, steam load 11 (1000 lbs./hr.), initial O2 13.0 ppb): 69% | % O2 Removed ([2]; hydrazine control run 2: 1.1 ppm actives, pH 9.4, steam load 15 (1000 lbs./hr.), initial O2 4.0 ppb): 50% | % O2 Removed ([2]; hydrazine control run 3: 1.2 ppm actives, pH 8.6, steam load 15 (1000 lbs./hr.), initial O2 6.0 ppb): 60% | % O2 Removed ([2]; hydrazine control run 4: 1.0 ppm actives, pH 8.8, steam load 15 (1000 lbs./hr.), initial O2 5.8 ppb): 55% | % O2 Removed ([2]; hydrazine control run 5: 0.8 ppm actives, pH 9.4, steam load 11 (1000 lbs./hr.), initial O2 3.5 ppb): 31% | % O2 Removed ([2]; hydrazine control run 6: 1.6 ppm actives, pH 9.6, steam load 14 (1000 lbs./hr.), initial O2 4.0 ppb): 30% | rate of hydrazine-oxygen reaction (in words) [5]: very slow at low temperatures | pH of maximum oxygen scavenging efficacy in solution [6]: 10.0-10.5 | temperature above which it decomposes ([7]; to nitrogen, hydrogen and ammonia): Above 400 °F | % Decomposition [8]: 20% | % O2 Removed [3]: 91 ± 4%

O=S([O-])[O-].[Na+].[Na+] [sodium sulfite]
decomposition in the boiler (in words) ([7]; at high pressures): decomposes in the boiler to form sulfur dioxide and hydrogen sulfide

Nc1ccccc1N [o-phenylenediamine]
% O2 Removed [3]: 10% | oxygen scavenging in the test water (in words) [3]: did not work as oxygen scavengers
